In US11306399B2, “Nanoparticle compositions” (JANUARY THERAPEUTICS, INC., priority 2019, dated 2022):

System: human patient-derived xenograft (PDX) derived from a human ovarian tumor (CTG-1180, Champions Oncology)
Test: In vivo xenograft efficacy (human ovarian tumor PDX) in tumor-bearing mice
Set-up: species or system Athymic Nude-Foxn1nu mice
Procedure: A nanoparticle composition comprising Compound 1 and albumin from Example 2 was tested in an in vivo xenograft efficacy model in tumor-bearing mice. Athymic Nude-Foxn1nu mice were implanted subcutaneously with a human patient-derived xenograft (PDX) derived from a human ovarian tumor (CTG-1180, Champions Oncology). Tumors were allowed grow to ˜200 cubic mm before commencement of treatment (day 0). Lyophilized nanoparticle formulations of Compound 1 were rehydrated in 5% dextrose in sterile water (D5W) immediately prior to dosing. Mice were then dosed intravenously with various concentrations of gemcitabine, nanoparticle formulation of Compound 1, or vehicle control (dissolved directly in D5W and dosed in mg of gemcitabine/compound 1 per kg of mouse body weight abbreviated as mpk) once weekly for 4 weeks (mice were dosed on day 0, 7, 14, and 21 with no treatments thereafter). […] Tumor volume was assessed by caliper measurement using the following formula: Tumor volume=width^2×length×0.52. Tumor growth inhibition (TGI) at day 28 was assessed using the following formula: […]. […]

SMILES: Nc1ccn([C@@H]2O[C@H](CO)[C@@H](O)C2(F)F)c(=O)n1 [gemcitabine, 2′,2′-difluoro-2′-deoxycytidine]
- Tumor growth inhibition (TGI) at day 28 (40 mpk (152 μmol/kg) intravenously once weekly for 4 weeks (day 0, 7, 14, 21)): 88%
- Tumor growth inhibition (TGI) at day 28 (100 mpk (380 μmol/kg) intravenously once weekly for 4 weeks (day 0, 7, 14, 21)): 98%
